For assay [1], the target named is human Gal-3 (hGal-3) (Homo sapiens (Human), UniProt P17931). Nature of the assay: Competitive binding assay: binding of biotinylated hGal-3 to microplate-adsorbed asialofetuin (ASF). The following applies: Activity on hGal-3; mean values of several measurements. In a few lines:
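Biotin-hGal-3/hGal-1 300-1000 ng/mL + cpd (DMSO dilutions) on ASF-coated plate, 3 h 4° C; wash; SA-HRP 80 ng/mL 1 h 4° C; wash; ABTS. IC50 = mean of several runs. hGal-1 preferably Cys→Ser (all six) mutant.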

In assay [2] the target is human Gal-1 (hGal-1). Nature of the assay: Competitive binding assay: binding of biotinylated hGal-1 to microplate-adsorbed asialofetuin (ASF). The following applies: Activities on hGal-1; mean values of several measurements. In a few lines:
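Compounds diluted in DMSO competed with biotinylated hGal-3 or hGal-1 (300-1000 ng/mL) for binding to plate-adsorbed asialofetuin for 3 h at 4° C. Bound galectin was detected with streptavidin-peroxidase (80 ng/mL, 1 h, 4° C) and ABTS substrate; IC50 reported as mean of several measurements.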

pIC50: −log10 of the molar value.

Consider 27 compounds from patent US12319672B2, “Alpha-D-galactopyranoside derivatives” (Idorsia Pharmaceuticals Ltd, priority 2019, dated 2025).

Chain of human Gal-1 (hGal-1) (P09382 2-135 limits assumed): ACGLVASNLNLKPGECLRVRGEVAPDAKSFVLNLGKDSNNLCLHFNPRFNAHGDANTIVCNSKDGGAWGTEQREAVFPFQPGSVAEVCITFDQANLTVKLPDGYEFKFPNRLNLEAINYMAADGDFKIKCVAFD
Chain of human Gal-3 (hGal-3) (P17931 whole entry): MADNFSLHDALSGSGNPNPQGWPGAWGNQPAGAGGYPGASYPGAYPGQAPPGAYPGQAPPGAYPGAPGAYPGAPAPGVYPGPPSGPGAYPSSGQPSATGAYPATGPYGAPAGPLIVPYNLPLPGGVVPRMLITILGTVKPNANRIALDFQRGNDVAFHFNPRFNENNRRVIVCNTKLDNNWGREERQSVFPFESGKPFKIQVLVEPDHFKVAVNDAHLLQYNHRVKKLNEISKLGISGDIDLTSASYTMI

For the compound `CO[C@@H]1[C@@H](n2cc(-c3cc(F)c(F)c(F)c3)nn2)[C@@H](O)[C@@H](CO)O[C@@H]1Cc1cc(C2CCN(CC3COC3)CC2)on1` [Example 3.44, (2R,3R,4S,5R,6R)-2-(hydroxymethyl)-5-methoxy-6-((5-(1-(oxetan-3-ylmethyl)piperidin-4-yl)isoxazol-3-yl)methyl)-4-(4-(3,4,5-trifluorophenyl)-1H-1,2,3-triazol-1-yl)tetrahydro-2H-pyran-3-ol], the pIC50 in assay [1] was 6.25; in assay [2] it was 5.27.
Regarding `CO[C@@H]1[C@@H](n2cc(-c3cc(F)c(F)c(F)c3)nn2)[C@@H](O)[C@@H](CO)O[C@@H]1Cn1cc(C2CCN(S(=O)(=O)c3ccc(C)cc3)CC2)nn1` [Example 4.23, (2R,3R,4S,5R,6R)-2-(hydroxymethyl)-5-methoxy-6-((4-(1-tosylpiperidin-4-yl)-1H-1,2,3-triazol-1-yl)methyl)-4-(4-(3,4,5-trifluorophenyl)-1H-1,2,3-triazol-1-yl)tetrahydro-2H-pyran-3-ol], the negative-log IC50 (pIC50) is 7.42 in assay [1] and 5.91 in assay [2].
The matching figures for `CO[C@@H]1[C@@H](n2cc(-c3cc(F)c(F)c(F)c3)nn2)[C@@H](O)[C@@H](CO)O[C@@H]1Cc1cc(C2CCN(C(=O)N3CCCC3)CC2)on1` [Example 3.67, (4-(3-(((2R,3R,4S,5R,6R)-5-hydroxy-6-(hydroxymethyl)-3-methoxy-4-(4-(3,4,5-trifluorophenyl)-1H-1,2,3-triazol-1-yl)tetrahydro-2H-pyran-2-yl)methyl)isoxazol-5-yl)piperidin-1-yl)(pyrrolidin-1-yl)methanone]: 7.16 and 6.04.
Turning to `CO[C@@H]1[C@@H](n2cc(-c3ccc(F)c(F)c3F)nn2)[C@@H](O)[C@@H](CO)O[C@@H]1Cc1cc(C(C)(C)C)on1` [Ex 1.193], the results for the pIC50 in assay [1] and in assay [2] were 6.92 and 5.90, respectively.
Consider `CO[C@@H]1[C@@H](n2cc(-c3ccc(C)c(F)c3F)nn2)[C@@H](O)[C@@H](CO)O[C@@H]1Cn1cc(C(C)(C)C)nn1` [Example 4.54, (2R,3R,4S,5R,6R)-6-((4-(tert-butyl)-1H-1,2,3-triazol-1-yl)methyl)-4-(4-(2,3-difluoro-4-methylphenyl)-1H-1,2,3-triazol-1-yl)-2-(hydroxymethyl)-5-methoxytetrahydro-2H-pyran-3-ol], for which the pIC50 in assay [1] was 7.34; in assay [2], 5.82.
The like results for `CO[C@@H]1[C@@H](n2cc(-c3ccc(Cl)c(F)c3F)nn2)[C@@H](O)[C@@H](CO)O[C@@H]1Cc1cc(C2(C#N)CCCC2)no1` [Ex 1.293] were, in that order, 7.03 and 5.53.
The matching figures for `CCOC(=O)N1CCC(c2cc(C[C@H]3O[C@H](CO)[C@H](O)[C@H](n4cc(-c5cc(F)c(C)c(F)c5)nn4)[C@H]3OC)no2)CC1` [Ex 1.202]: 7.48 and 5.40.
The matching figures for `CO[C@@H]1[C@@H](n2cc(-c3ccc(Cl)c(F)c3F)nn2)[C@@H](O)[C@@H](CO)O[C@@H]1Cc1cc(C(C)(CO)CCl)no1` (stereo partly drawn) [Ex 1.264]: 7.15 and 5.79.
Take `CO[C@@H]1[C@@H](n2cc(-c3cc(F)c(C#N)c(F)c3)nn2)[C@@H](O)[C@@H](CO)O[C@@H]1CC1CC(C2CCN(C(=O)OC(C)(C)C)CC2)=NO1` (stereo partly drawn) [Ex 1.223]: the negative logarithm of the IC50 (pIC50) in assay [1] was 6.42; in assay [2], 4.78.
As to `O=C(O)[C@H]1CC[C@](O)(c2cc(C[C@H]3O[C@H](CO)[C@H](O)[C@H](n4cc(-c5cc(F)c(F)c(F)c5)nn4)[C@H]3O)no2)CC1` [Example 2.11, (1S,4s)-4-(3-(((2R,3R,4R,5R,6R)-3,5-dihydroxy-6-(hydroxymethyl)-4-(4-(3,4,5-trifluorophenyl)-1H-1,2,3-triazol-1-yl)tetrahydro-2H-pyran-2-yl)methyl)isoxazol-5-yl)-4-hydroxycyclohexane-1-carboxylic acid], the figures for the pIC50 in assay [1] and in assay [2] were 5.60 and 4.86, respectively.
The matching figures for `CCOC(C)(C)c1cc(C[C@H]2O[C@H](CO)[C@H](O)[C@H](n3cc(-c4cc(F)c(F)c(F)c4)nn3)[C@H]2OC)on1` [Ex 1.309]: 6.16 and 5.56.
The like results for `OC[C@H]1O[C@H](CC2=NOC(C3CCNCC3)C2)[C@H](O)[C@@H](n2cc(-c3cc(F)c(F)c(F)c3)nn2)[C@H]1O` (mixture of isomers) [Example 3.09, (2R,3R,4R,5R,6R)-2-(hydroxymethyl)-6-(((RS)-5-(piperidin-4-yl)-4,5-dihydroisoxazol-3-yl)methyl)-4-(4-(3,4,5-trifluorophenyl)-1H-1,2,3-triazol-1-yl)tetrahydro-2H-pyran-3,5-diol] were, in that order, 6.08 and 4.88.
For `OC[C@H]1O[C@H](Cc2cc(C3CCN(c4nc5ccccc5s4)CC3)on2)[C@H](O)[C@@H](n2cc(-c3cc(F)c(F)c(F)c3)nn2)[C@H]1O` [Ex 1.86], the pIC50 in assay [1] was 7.05; in assay [2], below 4.00.
For the compound `CO[C@@H]1[C@@H](n2cc(-c3cc(F)c(F)c(F)c3)nn2)[C@@H](O)[C@@H](CO)O[C@@H]1Cn1cc(C2(C)CCOCC2)nn1` [Example 4.51, (2R,3R,4S,5R,6R)-2-(hydroxymethyl)-5-methoxy-6-((4-(4-methyltetrahydro-2H-pyran-4-yl)-1H-1,2,3-triazol-1-yl)methyl)-4-(4-(3,4,5-trifluorophenyl)-1H-1,2,3-triazol-1-yl)tetrahydro-2H-pyran-3-ol], the negative logarithm of the IC50 (pIC50) was 6.80 in assay [1] and 5.80 in assay [2].
The like results for `CO[C@@H]1[C@@H](n2cc(-c3cc(F)c(F)c(F)c3)nn2)[C@@H](O)[C@@H](CO)O[C@@H]1CC1CC(c2ccc3[nH]c(=O)oc3c2)=NO1` (stereo partly drawn) [Ex 1.20] were, in that order, 6.62 and 5.37.
The like results for `CO[C@@H]1[C@@H](n2cc(-c3cc(F)c(F)c(F)c3)nn2)[C@@H](O)[C@@H](CO)O[C@@H]1CC1=NO[C@@H](C2CCCCC2)C1` [Ex 1.128] were, in that order, 6.06 and 4.81.
The like results for `CO[C@@H]1[C@@H](n2cc(-c3cc(F)c(C)cc3F)nn2)[C@@H](O)[C@@H](CO)O[C@@H]1Cc1cc(C(C)(C)C)on1` [Ex 1.247] were, in that order, 6.68 and 5.64.
On to `CO[C@@H]1[C@@H](n2cc(-c3ccc(C)c(F)c3F)nn2)[C@@H](O)[C@@H](CO)O[C@@H]1Cc1cc(C2CCC2O)on1` (stereo partly drawn) [Ex 1.347], for which the negative logarithm of the IC50 (pIC50) is 6.96 in assay [1] and 5.09 in assay [2].
Regarding `CO[C@@H]1[C@@H](n2cc(-c3cc(F)c(F)c(F)c3)nn2)[C@@H](O)[C@@H](CO)O[C@@H]1Cc1cn(C2CCOCC2)nn1` [Example 4.03, (2R,3R,4S,5R,6R)-2-(hydroxymethyl)-5-methoxy-6-((1-(tetrahydro-2H-pyran-4-yl)-1H-1,2,3-triazol-4-yl)methyl)-4-(4-(3,4,5-trifluorophenyl)-1H-1,2,3-triazol-1-yl)tetrahydro-2H-pyran-3-ol], the pIC50 is 7.12 in assay [1] and 5.75 in assay [2].
The matching figures for `CO[C@@H]1[C@@H](n2cc(-c3ccc(C)c(F)c3F)nn2)[C@@H](O)[C@@H](CO)O[C@@H]1Cc1cc(C2CCN(S(C)(=O)=O)CC2)on1` [Ex 1.159]: 7.24 and 5.82.
The matching figures for `CC(C)(C)OC(=O)N1CC(c2cc(C[C@H]3O[C@H](CO)[C@H](O)[C@H](n4cc(-c5cc(F)c(F)c(F)c5)nn4)[C@H]3O)no2)C1` [Ex 1.53]: 6.46 and 5.54.
As to `CO[C@@H]1[C@@H](n2cc(-c3cc(F)c(F)c(F)c3)nn2)[C@@H](O)[C@@H](CO)O[C@@H]1CC1CC(C2CCOCC2)=NO1` (stereo partly drawn) [Ex 1.19], the negative-log IC50 (pIC50) is 6.28 in assay [1] and 5.25 in assay [2].
The like results for `OC[C@H]1O[C@H](CC2CC(c3ccc4cn[nH]c4c3)=NO2)[C@H](O)[C@@H](n2cc(-c3cc(F)c(F)c(F)c3)nn2)[C@H]1O` (stereo partly drawn) [Ex 1.33] were, in that order, 6.10 and 5.10.
The like results for `CO[C@@H]1[C@@H](n2cc(-c3cc(F)c(F)c(F)c3)nn2)[C@@H](O)[C@@H](CO)O[C@@H]1C[C@@H]1CC(C2CCN(C(C)=O)CC2)=NO1` [Example 3.12, 1-(4-((S)-5-(((2R,3R,4S,5R,6R)-5-hydroxy-6-(hydroxymethyl)-3-methoxy-4-(4-(3,4,5-trifluorophenyl)-1H-1,2,3-triazol-1-yl)tetrahydro-2H-pyran-2-yl)methyl)-4,5-dihydroisoxazol-3-yl)piperidin-1-yl)ethan-1-one] were, in that order, 7.15 and 6.28.
The matching figures for `CO[C@@H]1[C@@H](n2cc(-c3ccc(C)c(F)c3F)nn2)[C@@H](O)[C@@H](CO)O[C@@H]1Cc1cc(C2(O)CCCC2)on1` [Ex 1.239]: 7.14 and 5.19.
Consider `CO[C@@H]1[C@@H](n2cc(-c3cc(F)c(F)c(F)c3)nn2)[C@@H](O)[C@@H](CO)O[C@@H]1CN1CC(=O)N(C2CCCCC2)C1` [Example 6.09, 3-cyclohexyl-1-(((2R,3R,4S,5R,6R)-5-hydroxy-6-(hydroxymethyl)-3-methoxy-4-(4-(3,4,5-trifluorophenyl)-1H-1,2,3-triazol-1-yl)tetrahydro-2H-pyran-2-yl)methyl)imidazolidin-4-one], for which the results for the negative-log IC50 (pIC50) in assay [1] and in assay [2] were 7.23 and 5.17, respectively.
The matching figures for `CO[C@@H]1[C@@H](n2cc(-c3cc(F)c(F)c(F)c3)nn2)[C@@H](O)[C@@H](CO)O[C@@H]1C[C@H]1CC(C2CCN(C(C)=O)CC2)=NO1` [Example 3.13, 1-(4-((R)-5-(((2R,3R,4S,5R,6R)-5-hydroxy-6-(hydroxymethyl)-3-methoxy-4-(4-(3,4,5-trifluorophenyl)-1H-1,2,3-triazol-1-yl)tetrahydro-2H-pyran-2-yl)methyl)-4,5-dihydroisoxazol-3-yl)piperidin-1-yl)ethan-1-one]: 6.17 and 5.40.

Usually pIC50 stands for −log10 of the IC50, conventionally taken in molar units. Lower therefore signals a high IC50.
